Laboratory results reported in patent US20230414615A1, “PYRIMIDINONE COMPOUNDS FOR TREATING ACUTE INFLAMMATION” (TES Pharma S.r.l., priority 2022, published 2023).
Blank lines part the entries; values can stand above or below the compound they belong to.

Experiments:
Kupffer cells [1] = assay: Cytokine secretion in Kupffer cells following LPS-induced inflammation (Bio-Plex); format: cell-based, mouse; details: LPS 50 ng/mL; for secretion of IL-1β / secretion of IL-6: 1 μM
Description: […] Cells treated with DMSO were used as control at the final concentration of 0.5% in medium. All the wells were normalized with DMSO at 0.5% final concentration. The supernatant was collected to measure cytokine secretion using a Bio-Plex Pro mouse cytokine 23-plex assay system (cat #M60009RDPD) using a Bio-Plex Instrument. The cells were washed once with PBS, and then lysed to extract total RNA for performing RT-PCR to evaluate ACMSD modulation of IL-10, SIRT1, and STAT3 gene expression.
All cytokine secretion values were normalized to the luminescent signal relative to the measuring of the cellular ATP (CellTiter-Glo cat #G7571)).

Kupffer cells [2] = assay: NAD+ biosynthesis in Kupffer cells; format: cell-based
primary hepatocytes [3] = assay: NAD+ biosynthesis in primary hepatocytes; format: cell-based
[4] = test system: kidney proximal tubular HK2 cells; assay: NAD+ biosynthesis in kidney proximal tubular HK2 cells; format: cell-based
primary hepatocytes [5] = assay: SIRT1 activation in primary hepatocytes; format: cell-based; details: 500 nM; 24 hrs after treatment
[6] = test system: mouse primary hepatocytes; assay: SOD2 activity in mouse primary hepatocytes; format: cell-based; details: treatment for 24 hrs; stated as dose-dependent
primary hepatocytes [7] = assay: Gene expression / mRNA levels in primary hepatocytes; format: cell-based, mouse; details: for mRNA levels of mitochondrial genes TFAM, Ndufa, Uqcrc1, CytC, Atp5g1 and CS: mouse primary hepatocytes after 24 hr treatment
[8] = test system: co-culture primary hepatocytes and Kupffer cells; assay: IL-6 secretion in co-culture of primary hepatocytes and Kupffer cells following LPS-induced inflammation; format: cell-based; details: LPS 50 ng/mL; stated as dose-dependent
[9] = test system: human primary bone marrow mononuclear cells (BMMCs); assay: LPS-induced cytokine secretion in human primary bone marrow mononuclear cells (BMMCs); format: cell-based; details: for secretion of TNFα: BMMC cells, LPS 50 ng/mL
[10] = test system: co-culture of primary hepatocytes and stellate cells; assay: Cytokine secretion in co-culture of primary hepatocytes and stellate cells following LPS-induced inflammation; format: cell-based; details: LPS 50 ng/mL; for secretion of IL-1β: 1 μM
[11] = test system: co-culture of primary hepatocytes and stellate cells; assay: Gene expression in co-culture of primary hepatocytes and stellate cells after free fatty acid mix; format: cell-based; details: 5 μM; after 6 hr exposure to palmitate (0.33 mM) and oleate (0.66 mM)
rat renal NRK52E cells = assay: OPA-1 expression in rat renal NRK52E cells following Cisplatin insult; format: cell-based; details: via SIRT-3 activation; following Cisplatin insult (100 μM)
liver and kidneys = assay: Transcription of mitochondrial genes in liver and kidneys after administration of ACMSD inhibitors; format: in vivo
Kupffer cells [12] = assay: Gene expression (RT-PCR) in Kupffer cells; format: cell-based, mouse
Method: 200,000 Kupffer cells were plated out in a 24 well plate and the ACMSD inhibitor (e.g. compounds of present disclosure, compound of Formula I, Ia, Ib, and II) (5 μM) was added 1 hr before the cells were stimulated with LPS overnight 50 ng/ml (1 mg/mL stock solution in H2O, dispensed at 50 ng/mL in the well) final concentration. Cells treated with DMSO were used as control at the final concentration of 0.5% in medium. All the wells were normalized with DMSO at 0.5% final concentration. The supernatant was collected to measure cytokine secretion using a Bio-Plex Pro mouse cytokine 23-plex assay system (cat #M60009RDPD) using a Bio-Plex Instrument. The cells were washed once with PBS, and then lysed to extract total RNA for performing RT-PCR to evaluate ACMSD modulation of IL-10, SIRT1, and STAT3 gene expression.
Briefly, total RNA was extracted from the cells using the manufacturer's protocol for Qiagen RNeasy Plus Mini Kit (cat. 74134). The total RNA concentration was quantified using an Implen Instrument, and the purity was evaluated by measuring the ratio of A260/A280.
Total RNA (1 μg) was reverse transcribed using the manufacturer's protocol for SuperScript IV VILO Master Mix (ThermoFisher cat. #. 11756500). Real-time PCR was then performed in CFX 96 Real Time System (Bio-Rad) as follows: denaturation at 95° C. for 2 minutes, followed by 40 cycles at 95° C. for 10 s, and hybridization at 60° C. for 20 s. QPCR was performed using the 2× QuantiNova SYBR Green PCR Master Mix (Qiagen). Mouse β2 microglobulin (m 02M) was used as a reference gene.

HK2 primary tubule cells = assay: Gene expression in HK2 (HK-2) primary tubule cells, basal or after Cisplatin insult; format: cell-based
[13] = test system: CLP-induced sepsis model in mice; assay: CLP-induced sepsis model in mice (ex-vivo kidney gene expression, survival); parameters: species or system mouse; details: IP 30 mg/kg/dose
Method: C57BL/6 mice (12-15 weeks old) (obtained from Charles River Laboratories) were anesthetized by intraperitoneal (i.p.) injection of a 1:1 solution of ketamine (75 mg/kg) and xylazine (15 mg/kg) (or pentobarbital (70 mg/kg)). The lower abdomen of the mouse was shaved and the area disinfected with a 70% alcohol swab. Under aseptic conditions, a 1 to 2 cm midline laparotomy was performed and the cecum exposed. The cecum was tightly ligated at the level of the second cecal artery with a 2.0 silk suture, perforated twice with a 22-gauge needle, and after expressing to allow for fecal matter to extrude, returned into the abdomen. The abdominal wall is then closed by planes using a running silk 4-0. Control animals underwent the same laparotomy and externalization of the cecum, but no ligation or perforation was performed. Animals were resuscitated with 1.0 mL of 0.9% normal saline, immediately after surgery via subcutaneous injection and recovered on thermal blankets under monitoring. Animals were then treated with 0.5 ml LRS (Q12 hours SQ for 3 days), ampicillin sulbactam (250 mg/kg Q12 hours IP for 3 days) and analgesic treatment (buprenorphine 0.05 mg/kg for 3 days).
ACMSD inhibitors (e.g. compounds of present disclosure, compound of Formula I, Ia, Ib, and II) were administered at two different timepoints: (a) an early phase timepoint i.e. at the time of CLP and (b) at 24 hours after CLP. […] Blood samples and target organ tissue (liver and kidney) were collected at the time of sacrificing for histology and biomarker measurements.
(§1) MATERIALS AND METHODS: Treatment with Compound I-18 in presence of LPS for 24 h has been performed to evaluate anti inflammatory properties and M1 to M2 transition. Renal tubular cells were stimulated with Compound I-18 and TGFβ for 16 hrs to evaluate the expression of genes involved in fibrosis. […] Survival percentage and liver gene modulation has been monitored in Sham groups, LPS and LPS+Compound 1-18 groups (n=8). […] Survival percentage and expression of genes involved in renal inflammation has been monitored.

HK2 cells = assay: TGF-β-induced fibrosis in HK2 (renal tubular) cells; format: cell-based
Method: (§2) MATERIALS AND METHODS: Treatment with Compound I-18 in presence of LPS for 24 h has been performed to evaluate anti inflammatory properties and M1 to M2 transition. Renal tubular cells were stimulated with Compound I-18 and TGFβ for 16 hrs to evaluate the expression of genes involved in fibrosis. Compound 1-18 (50 mg/kg) was dosed daily in mice treated with LPS 15 mg/kg. Survival percentage and liver gene modulation has been monitored in Sham groups, LPS and LPS+Compound 1-18 groups (n=8). 12-15 week old mice underwent CLP (50% ligation, thru-and-thru puncture with 21G needle) to evaluate CLP-induced sepsis. Compound I-18 was dosed at the concentration of 50 mg/kg for 7 days from CLP. Survival percentage and expression of genes involved in renal inflammation has been monitored.

[14] = mRNA levels of mitochondrial and oxidative stress genes (cell type not stated); format: cell-based; details: 100 μM
murine Kupffer cells = assay: M1/M2 polarisation of murine Kupffer cells treated with LPS; format: cell-based, mouse
Method: as §2

C57BL/6 mice = assay: LPS-induced systemic inflammation in mice, survival; format: in vivo, mouse; details: 50 mg/kg dosed daily, LPS 15 mg/kg
Method: Male C57/6 mice (12-15 weeks old) (obtained from Charles River Laboratories) were housed under a 12 h/12 h light/dark cycle with free access to water and standard food. The mice were divided into four groups: control, control+ACMSD inhibitor, LPS, and LPS+the ACMSD inhibitor. LPS (Sigma; 20 mg/kg/d and 1 mg/ml in 0.9% normal saline) was intraperitoneally injected, and the same volume of 0.9% normal saline alone was used as controls. A dose of 15 mg/kg IP injection of the ACMSD inhibitor (e.g. compounds of present disclosure, compound of Formula I, Ia, Ib, and II) was used which was intraperitoneally injected immediately after LPS injection. An equal volume of the solvent was injected in the control and LPS alone groups. The mice were sacrificed at 24 h after various treatments and the liver and kidneys were collected for subsequent analysis.
as §1

[15] = test system: preclinical model of liver and kidney diseases; assay: Preclinical model of liver and kidney diseases (NASH, AKI); details: in vivo
[16] = 100 μM, HK-2 cells following cisplatin-insult
[17] = cell system not restated (follows HK2 TGF-β experiment)
[18] = murine Kupffer cells treated with LPS

- activity of mitochondrial superoxide dismutase 2, SOD2 [6]: increases
SMILES: N#Cc1c(-c2cccs2)nc(SCc2cccc(-c3nn[nH]n3)c2)[nH]c1=O [Compound I-17]
- secretion of IL-1β (Kupffer cells [1]): reduces
- secretion of IL-6 (Kupffer cells [1]; incubation time 24 h): reduced
- secretion of TNFα (Kupffer cells [1]): reduces
- NAD+ biosynthesis (Kupffer cells [2]): restores
- NAD+ biosynthesis (primary hepatocytes [3]): restores
- NAD+ biosynthesis [4]: restores
- SIRT1 activation (primary hepatocytes [5]): activate
- mRNA levels of mitochondrial genes TFAM, Ndufa, Uqcrc1, CytC, Atp5g1 and CS (primary hepatocytes [7]): increases
- expression of mitochondrial SOD2 (primary hepatocytes [7]; primary hepatocytes): increases
- mRNA levels of fatty acid oxidation genes Mcad, Cpt1a, Hadha1, Hsl, Pdk4 and Sdha (primary hepatocytes [7]; primary hepatocytes after 6 hr exposure to palmitate (0.33 mM) and oleate (0.66 mM)): increases
- expression of mitochondrial transcription factor A, TFAM (primary hepatocytes [7]; primary hepatocytes, via SIRT-1 activation): increasing
- secretion of IL-6 [8]: reduced
- secretion of TNFα [9]: reduces
- secretion of IL-1β [10]: reduces
- secretion of TNFα [10]: reduces
- expression of IL-1β [11]: reduced
- expression of TNFα [11]: reduced
- expression of pro-fibrotic chemokine CTGF [11]: reduces
- expression of pro-fibrotic cytokine TGF-β [11]: reduces
- expression of the pro-fibrotic genes BAX, ACTA2, Col1A1, fibronectin, THBS-1 and TIMP2 [11]: reduces
- expression of OPA-1 (rat renal NRK52E cells): increasing
- expression of the same genes (Mcad, Cpt1a, Ndufa2, Atp5g1, Sod2) in the kidneys (liver and kidneys): unaffected
- transcription of the mitochondrial genes Mcad, Cpt1a, Ndufa2, Atp5g1 and Sod2 in the liver (liver and kidneys): induces

SMILES: N#Cc1c(-c2cccs2)nc(SCc2cccc(CC(=O)O)c2)[nH]c1=O [Compound I-18]
- secretion of IL-1β (Kupffer cells [1]): reduces
- secretion of IL-6 (Kupffer cells [1]; incubation time 24 h): reduced
- secretion of TNFα (Kupffer cells [1]): reduces
- secretion of IL-6, dose dependence of the reduction (Kupffer cells [1]; incubation time 24 h): in a dose-dependent manner
- expression of SIRT-1 (Kupffer cells [12]): increases
- QPRT expression (Kupffer cells [12]; inflammatory conditions (LPS at 50 ng/mL), beyond basal conditions): increases
- expression of IL-10 (Kupffer cells [12]; stated as dose-dependent): increases
- expression of STAT3 (Kupffer cells [12]; stated as dose-dependent): increases
- NAD+ biosynthesis (Kupffer cells [2]): restores
- NAD+ biosynthesis (primary hepatocytes [3]): restores
- NAD+ biosynthesis [4]: restores
- reduction of SIRT expression induced by a Cisplatin insult (HK2 primary tubule cells; 50 μM, HK2 primary tubule cells): reverses
- expression of OPA-1 (HK2 primary tubule cells; [16]): increases
- expression of SOD2 (HK2 primary tubule cells; [16]): increases
- expression of SIRT-3 (HK2 primary tubule cells; HK2 primary tubule cells): increases
- mRNA levels of mitochondrial genes Sod1, Ndufa2, Cox2 and CytC (HK2 primary tubule cells; HK-2 cells after 24 hr treatment): increase
- SIRT1 activation (primary hepatocytes [5]): activate
- activity of mitochondrial superoxide dismutase 2, SOD2 [6]: increases
- mRNA levels of mitochondrial genes TFAM, Ndufa, Uqcrc1, CytC, Atp5g1 and CS (primary hepatocytes [7]): increases
- secretion of IL-6 [8]: reduced
- secretion of LPS-induced IL-6 ([9]; 5 μM, human BMMCs): reduces
- secretion of TNFα [9]: reduces
- secretion of IL-1β [10]: reduces
- secretion of TNFα [10]: reduces
- expression of TNFα [11]: reduced
- expression of pro-fibrotic chemokine CTGF [11]: reduces
- expression of pro-fibrotic cytokine TGF-β [11]: reduces
- expression of the pro-fibrotic genes BAX, ACTA2, Col1A1, fibronectin, THBS-1 and TIMP2 [11]: reduces
- expression of IL-1β in ex-vivo kidney tissue samples [13]: reduced
- expression of MCP1 in ex-vivo kidney tissue samples [13]: reduced
- expression of TNFα in ex-vivo kidney tissue samples [13]: reduced
- SMAD4 expression (HK2 cells; TGF-β-induced fibrosis in HK2 cells): less modulated
- SMAD3 (HK2 cells; both preventive and therapeutic treatment, TGF-β-induced fibrosis in HK2 cells): dose-dependent reduction
- expression of TIMP2 (HK2 cells; [17]): dose-dependent reduction
- expression of fibronectin (HK2 cells; [17]): dose-dependent reduction
- in vitro fibrosis in renal cells (HK2 cells; renal tubular cells stimulated with TGFβ for 16 hrs): reduced
- mRNA levels of mitochondrial and oxidative stress genes CS, Ndufa2, Cox2, Atp5g1, Sod1 and Sod2 [14]: increases
- expression of the same genes (Mcad, Cpt1a, Ndufa2, Atp5g1, Sod2) in the kidneys (liver and kidneys): unaffected
- transcription of the mitochondrial genes Mcad, Cpt1a, Ndufa2, Atp5g1 and Sod2 in the liver (liver and kidneys): induces
- polarisation of resident liver macrophages (Kupffer cells) towards an M2 phenotype (M1-to-M2 transition) (murine Kupffer cells; in vitro, M1 induced by LPS): promoting their conversion
- M1 phenotype gene markers iNOS, IL-6 and TNFα (murine Kupffer cells; [18]): decrease
- M2 phenotype gene markers Arginase-1, Mannose Receptor (Mrc-2) and IL-10 (murine Kupffer cells; [18]): increase
- anti-inflammatory M2 Kupffer macrophages / M2 macrophage phenotype (murine Kupffer cells; [18]): promotes
- pro-inflammatory M1 Kupffer macrophages (murine Kupffer cells; murine Kupffer cells treated with LPS, dose-response manner): blocks
- M2 macrophage phenotype (murine Kupffer cells; two different stimuli (LPS and IL-4)): can promote
- survival in LPS-induced systemic inflammation (C57BL/6 mice): promotes survival
- effects in preclinical model of liver and kidney diseases, such as NASH and AKI [15]: protective effects
